Source: publication PMC8459971, “Evaluation of the hepatotoxicity of the novel GPR40 (FFAR1) agonist CPL207280 in the rat and monkey” (PLoS ONE, 2021)
“And” between values parts separate entries of the source, which are not always exact repeats. Identical values can stand only once.

How the values were obtained:
MRP4 = target: T1, MRP4 (Homo sapiens, UniProt O15439); experiment: Vesicular transport inhibition assay, MRP4; details: for Accumulation (counts per minute; CPM) with AMP / Accumulation (counts per minute; CPM) with ATP: MRP4;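 note: membrane vesicles with MRP4 incubated with compound and probe substrate plus 4 mM ATP, or AMP as passive-diffusion background, vesicular substrate uptake read by liquid scintillation counting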;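 for Accumulation (counts per minute; CPM) with AMP: ATP 4 mM vs AMP background separates transporter uptake from diffusion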;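 for Accumulation (counts per minute; CPM) with ATP: ATP 4 mM vs AMP background separates transporter uptake from diffusion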
T1 sequence (O15439 1-1325): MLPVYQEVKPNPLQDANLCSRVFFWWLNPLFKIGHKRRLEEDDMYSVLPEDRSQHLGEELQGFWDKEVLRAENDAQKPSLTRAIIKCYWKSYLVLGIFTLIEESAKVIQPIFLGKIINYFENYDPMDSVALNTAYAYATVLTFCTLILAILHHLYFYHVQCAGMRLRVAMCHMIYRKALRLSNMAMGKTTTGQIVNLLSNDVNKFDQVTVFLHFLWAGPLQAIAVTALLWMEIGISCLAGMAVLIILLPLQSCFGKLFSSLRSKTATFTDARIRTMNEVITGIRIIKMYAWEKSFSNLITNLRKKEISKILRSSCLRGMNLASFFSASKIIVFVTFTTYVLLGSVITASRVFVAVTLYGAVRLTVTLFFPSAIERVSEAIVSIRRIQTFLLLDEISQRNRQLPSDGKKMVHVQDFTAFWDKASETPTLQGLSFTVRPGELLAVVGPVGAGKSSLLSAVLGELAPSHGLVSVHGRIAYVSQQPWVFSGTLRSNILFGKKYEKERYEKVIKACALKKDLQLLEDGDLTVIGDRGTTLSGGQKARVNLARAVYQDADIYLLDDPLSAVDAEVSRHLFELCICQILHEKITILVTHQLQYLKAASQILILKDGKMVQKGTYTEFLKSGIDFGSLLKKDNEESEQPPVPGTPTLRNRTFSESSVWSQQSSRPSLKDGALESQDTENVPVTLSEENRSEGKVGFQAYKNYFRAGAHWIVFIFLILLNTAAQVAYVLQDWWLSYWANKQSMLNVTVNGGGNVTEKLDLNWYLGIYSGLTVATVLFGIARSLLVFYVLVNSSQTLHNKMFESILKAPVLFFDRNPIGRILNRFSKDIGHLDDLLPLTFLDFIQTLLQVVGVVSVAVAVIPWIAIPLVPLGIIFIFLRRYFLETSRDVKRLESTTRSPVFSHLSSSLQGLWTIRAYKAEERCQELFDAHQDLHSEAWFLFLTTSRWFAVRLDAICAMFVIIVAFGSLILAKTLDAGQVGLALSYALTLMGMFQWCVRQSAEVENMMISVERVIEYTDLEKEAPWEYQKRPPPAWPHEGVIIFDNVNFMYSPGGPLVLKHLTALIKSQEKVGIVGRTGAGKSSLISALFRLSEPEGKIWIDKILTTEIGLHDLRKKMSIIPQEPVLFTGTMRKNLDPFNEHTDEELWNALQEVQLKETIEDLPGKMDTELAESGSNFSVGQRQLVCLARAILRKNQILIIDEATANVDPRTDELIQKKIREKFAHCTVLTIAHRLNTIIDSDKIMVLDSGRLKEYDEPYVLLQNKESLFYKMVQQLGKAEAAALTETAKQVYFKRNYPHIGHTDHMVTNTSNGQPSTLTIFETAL
Method: In the vesicular transport inhibition assay (for BSEP, MRP) compounds were incubated with membrane vesicle preparations and the probe substrate. Incubations were carried out in the presence of 4 mM ATP or AMP to distinguish between transporter-mediated uptake and passive diffusion into the vesicles. For MRP2 and MRP3, reactions were carried out in the presence of 2 mM glutathione. Compounds were added to the reaction mixture in 0.75 μL of solvent (1% of the final incubation volume). […] Reactions were initiated by the addition of 25 μL of 12 mM MgATP (or 12 mM AMP in assay buffer as a background control) and preincubated separately. Reactions were quenched by the addition of 200 μL of ice-cold washing buffer and immediate filtration via glass fiber filters mounted on a 96-well plate (filter plate). The filters were washed (5 × 200 μL of ice-cold washing buffer), dried, and the amount of substrate inside the filtered vesicles was determined by liquid scintillation counting.

OAT1 = target: T2, OAT1 (Homo sapiens, UniProt Q4U2R8); experiment: Uptake transporter inhibition assay, OAT1; details: for Accumulation (counts per minute; CPM) HEK293FT-MOCK / Accumulation (counts per minute; CPM) HEK293FT-OAT1: OAT1;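 note: HEK293FT cells expressing OAT1 or mock, uptake of radiolabeled probe substrate at 37 °C in HBSS pH 7.4 with test compound or solvent, cell lysate read by liquid scintillation counting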
T2 sequence (Q4U2R8 1-563): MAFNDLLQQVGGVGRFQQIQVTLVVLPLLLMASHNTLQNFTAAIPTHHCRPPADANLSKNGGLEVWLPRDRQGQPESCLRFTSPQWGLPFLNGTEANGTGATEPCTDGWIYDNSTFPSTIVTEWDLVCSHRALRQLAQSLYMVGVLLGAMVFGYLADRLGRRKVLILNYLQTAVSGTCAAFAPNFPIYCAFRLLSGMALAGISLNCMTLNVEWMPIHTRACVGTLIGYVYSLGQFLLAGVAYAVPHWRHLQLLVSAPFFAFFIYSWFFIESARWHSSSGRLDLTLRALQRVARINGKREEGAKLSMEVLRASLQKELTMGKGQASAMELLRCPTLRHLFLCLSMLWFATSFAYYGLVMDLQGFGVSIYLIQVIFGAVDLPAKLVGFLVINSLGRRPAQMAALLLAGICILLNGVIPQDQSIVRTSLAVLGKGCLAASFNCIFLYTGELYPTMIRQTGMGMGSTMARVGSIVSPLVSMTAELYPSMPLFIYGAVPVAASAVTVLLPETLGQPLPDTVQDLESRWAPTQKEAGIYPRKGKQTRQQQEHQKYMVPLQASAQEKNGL
Method: For the uptake transporter inhibition assay, cells were washed twice with 100 μL of the appropriate buffer (HK, pH 7.4) for OATP1B1, followed by HBSS (pH 7.4) for (NTCP, OAT1, OAT2v1, OATP1A2, and OATP1B3). Uptake experiments were carried out at 37 ± 1°C in 50 μL of the respective buffer containing the probe substrate and the compound or solvent. […] After the experiment, cells were washed twice with 100 μL of cold appropriate buffer and lysed with 50 μL of 0.1 M NaOH. Radiolabeled probe substrate transport was determined by measuring an aliquot (35 μL) from each well for liquid scintillation counting.

HepG2 cells = experiment: Respiration in hepatocytes (Seahorse XF Mito stress test); assay type: cell-based, human

Compound: Cc1cc(OCCCS(C)(=O)=O)cc(C)c1-c1cccc(COc2ccc3c(c2)OC[C@H]3CC(=O)O)c1 [TAK-875, fasiglifam, reference compound]
- IC50 (MRP4): 6.9 µM
- Accumulation (counts per minute; CPM) with AMP (MRP4; conc 0.07 µM): 1270 CPM and 1266 CPM
- Accumulation (counts per minute; CPM) with ATP (MRP4; conc 0.07 µM): 5265 CPM and 5304 CPM
- Accumulation (counts per minute; CPM) with AMP (MRP4; conc 0.21 µM): 1193 CPM and 1241 CPM
- Accumulation (counts per minute; CPM) with ATP (MRP4; conc 0.21 µM): 5360 CPM and 5232 CPM
- Accumulation (counts per minute; CPM) with AMP (MRP4; conc 0.62 µM): 1249 CPM and 1265 CPM
- Accumulation (counts per minute; CPM) with ATP (MRP4; conc 0.62 µM): 5330 CPM and 5164 CPM
- Accumulation (counts per minute; CPM) with AMP (MRP4; conc 16.67 µM): 1183 CPM and 1161 CPM
- Accumulation (counts per minute; CPM) with ATP (MRP4; conc 16.67 µM): 1970 CPM and 2307 CPM
- Accumulation (counts per minute; CPM) with AMP (MRP4; conc 50.00 µM): 1007 CPM and 1016 CPM
- Accumulation (counts per minute; CPM) with ATP (MRP4; conc 50.00 µM): 1338 CPM and 1487 CPM
- IC50 (OAT1): 34.8 µM
- Accumulation (counts per minute; CPM) HEK293FT-MOCK (OAT1; conc 0.10 µM): 34 CPM and 47 CPM
- Accumulation (counts per minute; CPM) HEK293FT-OAT1 (OAT1; conc 0.10 µM): 3883 CPM and 3843 CPM
- Accumulation (counts per minute; CPM) HEK293FT-MOCK (OAT1; conc 0.30 µM): 36 CPM and 29 CPM
- Accumulation (counts per minute; CPM) HEK293FT-OAT1 (OAT1; conc 0.30 µM): 3654 CPM and 3608 CPM
- Accumulation (counts per minute; CPM) HEK293FT-MOCK (OAT1; conc 1.00 µM): 32 CPM and 37 CPM
- Accumulation (counts per minute; CPM) HEK293FT-OAT1 (OAT1; conc 1.00 µM): 3568 CPM and 3527 CPM
- Accumulation (counts per minute; CPM) HEK293FT-MOCK (OAT1; conc 3.00 µM): 36 CPM and 37 CPM
- Accumulation (counts per minute; CPM) HEK293FT-OAT1 (OAT1; conc 3.00 µM): 3226 CPM and 3417 CPM
- Accumulation (counts per minute; CPM) HEK293FT-MOCK (OAT1; conc 10.00 µM): 34 CPM and 39 CPM
- Accumulation (counts per minute; CPM) HEK293FT-OAT1 (OAT1; conc 10.00 µM): 3074 CPM and 3122 CPM
- Accumulation (counts per minute; CPM) HEK293FT-MOCK (OAT1; conc 30.00 µM): 36 CPM and 39 CPM
- Accumulation (counts per minute; CPM) HEK293FT-OAT1 (OAT1; conc 30.00 µM): 1739 CPM and 1807 CPM
- Accumulation (counts per minute; CPM) HEK293FT-MOCK (OAT1; conc 100.00 µM): 33 CPM and 31 CPM
- Accumulation (counts per minute; CPM) HEK293FT-OAT1 (OAT1; conc 100.00 µM): 496 CPM and 493 CPM
- oxygen consumption rate, mito stress tracing (HepG2 cells; Fig2 B, HepG2, 0,3 uM, 61.3509 min): 201.605
- ECAR (Extracellular Acidification Rate) (HepG2 cells; HepG2, 30 uM, replicates): 1.734
- effect on maximal respiratory capacity after FCCP (HepG2 cells; HepG2, Seahorse XF): dose-dependent reduction in maximal respiratory capacity
- EC50 (HepG2 cells; Homo sapiens, HepG2, Seahorse XF, read-out: EC50 of acidification of media (ECAR)): 46 µM
